Source: patent US20090036437A1, “PHARMACEUTICAL COMPOSITION COMPRISING PHENOXAZINIUM COMPOUND AS AN ACTIVE INGREDIENT” (priority 2005, published 2009)

How the values were obtained:
[1] = in vitro growth-inhibiting assay of rat L6 cells; format: cell-based; details: rat; Table 8; read-out: 50% growth-inhibiting concentration (nM) cytotoxicity L6
Description: Rat L6 cell (rat skeletal myoblast cell) was cultured in RPMI-1640 culture medium supplemented with 1% of L-glutamine (200 mM) and fetal calf serum (10%) under 5% CO2 concentration at 37° C. A test sample was prepared by dissolving the test compounds according to the present invention and a positive control drug in DMSO to a predetermined concentration. After pre-culture had been finished, the culture medium containing the cells in a logarithmic phase was placed into each well of a 96-well culture plate, and the test sample comprising the predetermined amount of the test compound, and DMSO without the test compound were added to the wells in duplicate.
(§1) After incubation of the culture plate for 72 hours in an incubator, a growth-inhibiting activity was assayed as follows. Alamar Blue aqueous solution (10 μL) was added to each well followed by a further two-hour culture. The culture plate was then attached to a fluorescence micro titer plate reader (Spectramax Gemeni XS; U.S. Molecular Device Co.), and the intensity of fluorescence at 588 nm was detected with an excitation wave length of 536 nm. A residual ratio of L6 cells was calculated with respect to a group treated with the test sample and a control group. A growth-inhibiting ratio for L6 cells was then calculated from the resulting residual ratio in accordance with the following equation to determine 50% growth-inhibiting concentration (EC50).
Growth-inhibiting ratio (%)=[1−(C−A)/(B−A)]×100 • A: Initial number of cells; • B: Number of the cells in the control after 3 days; and • C: Number of the cells treated with the test sample after 3 days Determination of Pharmaceutical effect for Chloroquine-Resistant Malaria

[2] = system: Trypanosoma brucei rhodensiense (STIB 900 strain); assay: in vitro growth-inhibiting screening assay, protozoa of African trypanosomiasis; format: cell-based
Description: This test was done using a trypomastigote of the protozoa of Trypanosoma brucei rhodensiense (STIB 900 strain) ranging in blood stream. MEM medium sterilized by filtration was supplemented with 25 mM of N-2-hydroxyethylpiperazine-2-ethanesulfonic acid (HEPES), 1 g/L of glucose, 1% of MEM non-essential amino acids, 0.2 mM of 2-mercaptoethanol, 2 mM of sodium pyruvate, 1 mM of hypoxathine and 15% of heat-treated horse serum. The protozoa were cultured under CO2 concentration of 5%, at 37° C.
A test sample was prepared by dissolving the test compounds according to the present invention and a positive control drug (Melarsoprol) in DMSO to a predetermined concentration. Culture medium containing the protozoa of 8×10^3, and the test sample comprising the predetermined amount of the test compound, and DMSO without the test compound were added into each well of 96-well culture plate to a final volume of 100 μL in duplicate.
as §1, with “Co.),” for “Co.), and”, “with” for “with an”, “nm to calculate an infection” for “nm. A residual”, “the protozoa” for “L6 cells was calculated”, “ratio” for “ratio for L6 cells”, “infection” for “residual”
Growth-inhibiting ratio (%)=[1−(b−a)/(c−a)]×100 • a: Initial infection ratio; • b: Infection ratio of the test sample group; and • c: Infection ratio of the control group.
A selective toxicity coefficient, which is used as an index for the selective toxicity for the protozoa of African trypanosomiasis, was calculated by the following equation, and the pharmaceutical effect was determined.
Selective toxicity coefficient=(EC50 value of the test sample for rat L6 cell)/(EC50 value of the test sample for the protozoa of African typanosomiasis)

For `Nc1nc(N)nc(Nc2ccc([As]3SCC(CO)S3)cc2)n1` (stereo not drawn) [Melarsoprol, reference compound], the EC50 at 72 h [1] was 7800 nM, the Selective toxicity ([2]; EC50 rat L6 cell / EC50 protozoa of African trypanosomiasis) was 1300 and the EC50 ([2]; Trypanosoma brucei, STIB900, 72 h, read-out: 50% growth-inhibiting concentration (nM) Trypanosoma brucei rhod.) was 6 nM.
